Values after ≈ are worked out from the molar mass of the structure shown.
Experiments:
Staphylococcus aureus [1] = assay: Antibacterial activity against Staphylococcus aureus 209P JC-1; type: functional
Enterococcus hirae = assay: Antibacterial activity against Enterococcus hirae ATCC 8043; type: functional
Staphylococcus aureus [2] = assay: Antibacterial activity against […] resistant Staphylococcus aureus M133 (MRSA); type: functional
[3] = test system: Staphylococcus epidermidis; assay: Antibacterial activity against Staphylococcus epidermidis ATCC 14990; type: functional
Enterococcus faecalis [4] = assay: Antibacterial activity against vancomycin resistant Enterococcus faecalis NCTC 12201 (VRE); type: functional
Enterococcus faecalis [5] = assay: Antibacterial activity against Enterococcus faecalis W-73; type: functional
Staphylococcus aureus [6] = assay: Antibacterial activity against […] resistant Staphylococcus aureus M126 (MRSA); type: functional
Enterococcus faecium = assay: Antibacterial activity against vancomycin resistant Enterococcus faecium vanA (VRE); type: functional
Enterococcus faecalis [7] = assay: Antibacterial activity against Enterococcus faecalis W-73

C[N+]1(C)CC23c4c5c6c7c8c9c%10c%11c%12c%13c%14c%15c%16c%17c%18c%19c%20c(c2c2c4c4c6c6c8c%10c8c%12c%10c%14c(c%15%19)c%12c%20c2c2c4c6c8c%10c%122)C%18C2c4c6c8c%10c(c4-%17)C%16C%13C%114C[N+](C)(C)CC%104C=9C8C7C5=C6C23C1.[I-].[I-] (centres undefined)
MIC (Staphylococcus aureus [1]): 0.78 µg/mL
MIC (Enterococcus hirae): 6.25 µg/mL
MIC (Staphylococcus aureus [2]): 1.56 µg/mL
MIC [3]: 3.12 µg/mL
MIC (Enterococcus faecalis [4]): 3.12 µg/mL
MIC (Enterococcus faecalis [5]): 6.25 µg/mL
MIC (Staphylococcus aureus [6]): 1.56 µg/mL
MIC (Enterococcus faecium): 6.25 µg/mL

CCCCC1C23C4=c5c6c7c8c9c%10c%11c%12c%13c%14c%15c%16c%17c%18c%19c%20c%21c%22c%23c(c5c5c6c6c8c%11c8c%11c%12c%15c%12c(c%20%16)c%21c%15c%23c5c(c68)c%15c%12%11)C2(C[N+]1(C)C)C%22C%19c1c-%18c2c5c(c13)C4C7C9=C5C1(C2C%17%14)C(CCCC)[N+](C)(C)CC%10%131.[I-].[I-] (centres undefined)
MIC (Staphylococcus aureus [1]): 6.25 µg/mL
MIC (Enterococcus hirae): 6.25 µg/mL
MIC (Staphylococcus aureus [2]): 6.25 µg/mL
MIC [3]: 6.25 µg/mL
MIC (Enterococcus faecalis [4]): 6.25 µg/mL
MIC (Enterococcus faecalis [5]): 6.25 µg/mL
MIC (Staphylococcus aureus [6]): 6.25 µg/mL
MIC (Enterococcus faecium): 12.5 µg/mL

CCCCCCC1C23C4=c5c6c7c8c9c%10c%11c%12c%13c%14c%15c%16c%17c%18c%19c%20c%21c%22c%23c(c5c5c6c6c8c%11c8c%11c%12c%15c%12c(c%20%16)c%21c%15c%23c5c(c68)c%15c%12%11)C2(C[N+]1(C)C)C%22C%19c1c-%18c2c5c(c13)C4C7C9=C5C1(C2C%17%14)C(CCCCCC)[N+](C)(C)CC%10%131.[I-].[I-] (centres undefined)
MIC (Staphylococcus aureus [1]): 6.25 µg/mL
MIC (Enterococcus hirae): 25 µg/mL
MIC (Enterococcus faecalis [7]): 50 µg/mL
MIC (Staphylococcus aureus [2]): 12.5 µg/mL
MIC [3]: 12.5 µg/mL
MIC (Enterococcus faecalis [4]): 25 µg/mL
MIC (Staphylococcus aureus [6]): 12.5 µg/mL
MIC (Enterococcus faecium): 12.5 µg/mL

C[N+]1(C)CC23c4c5c6c7c8c9c%10c%11c%12c%13c%14c%15c%16c%17c%18c%19c%20c%21c(c2c2c4c4c6c9c6c4c4c2c%21c2c%19c(c%18%14)c9c%13c%10c6c9c24)C2=C4c6c(c-%16c9c%10c6C(C5C7=C%10C5(C[N+](C)(C)CC8%115)C9C%15%12)C43C1)C%17C2%20.[I-].[I-] (centres undefined)
MIC (Staphylococcus aureus [1]): 3.12 µg/mL
MIC (Enterococcus hirae): 6.25 µg/mL
MIC (Staphylococcus aureus [2]): 3.12 µg/mL
MIC [3]: 3.12 µg/mL
MIC (Enterococcus faecalis [4]): 6.25 µg/mL
MIC (Enterococcus faecalis [5]): 6.25 µg/mL
MIC (Staphylococcus aureus [6]): 3.12 µg/mL
MIC (Enterococcus faecium): 6.25 µg/mL

CCCCCCCCCC1C23C4=C5c6c7c8c9c(c%10c%11c%12c%13c%14c%15c%16c%17c%18c%19c%20c%21c%22c%23c%24c(c6c6c8c8c%25c9c%11c%14c%25c9c%15c%18c%11c(c%23%19)c%24c6c8c%119)C5C%22c5c4c4c6c(c5-%21)C(C%20%17)C5(C6=C%12C%10C42)C(CCCCCCCCC)[N+](C)(C)CC%13%165)C73C[N+]1(C)C.[I-].[I-] (centres undefined)
MIC (Staphylococcus aureus [1]): > 100 µg/mL
MIC (Enterococcus hirae): > 100 µg/mL
MIC [3]: > 100 µg/mL
MIC (Enterococcus faecalis [4]): > 100 µg/mL
MIC (Enterococcus faecalis [5]): > 100 µg/mL
MIC (Enterococcus faecium): > 100 µg/mL

C[N+]1(C)CC23C4=C5C6=C7C8C9=c%10c%11c%12c%13c%14c%15c%16c%17c%18c%19c%20c%21c%22c%23c(c4c4c2c2c%24c%25c(c%10c(c%11%15)c%10c%16c%19c(c%25%10)c%10c%20c%23c4c%24%10)C2C9C73C1)C1C%22=C2c3c(c6c(c-%13c3C(C%14%17)C23C[N+](C)(C)CC%21%183)C%128)C51.[I-].[I-] (centres undefined)
MIC (Staphylococcus aureus [1]): 1.56 µg/mL
MIC (Enterococcus hirae): 12.5 µg/mL
MIC (Staphylococcus aureus [2]): 0.78 µg/mL
MIC [3]: 6.25 µg/mL
MIC (Enterococcus faecalis [4]): 12.5 µg/mL
MIC (Enterococcus faecalis [5]): 12.5 µg/mL
MIC (Staphylococcus aureus [6]): 3.12 µg/mL
MIC (Enterococcus faecium): 12.5 µg/mL

CN[C@H](CC(C)C)C(=O)N[C@H]1C(=O)N[C@@H](CC(N)=O)C(=O)N[C@H]2C(=O)N[C@H]3C(=O)N[C@H](C(=O)N[C@H](C(=O)O)c4cc(O)cc(O)c4-c4cc3ccc4O)[C@H](O)c3ccc(c(Cl)c3)Oc3cc2cc(c3O[C@@H]2O[C@H](CO)[C@@H](O)[C@H](O)[C@H]2O[C@H]2C[C@](C)(N)[C@H](O)[C@H](C)O2)Oc2ccc(cc2Cl)[C@H]1O [VANCOMYCIN]
MIC (Staphylococcus aureus [1]): 1.56 µg/mL (≈ 1.08 µM)
MIC (Enterococcus hirae): 3.12 µg/mL (≈ 2.15 µM)
MIC (Staphylococcus aureus [2]): 1.56 µg/mL (≈ 1.08 µM)
MIC [3]: 3.12 µg/mL (≈ 2.15 µM)
MIC (Enterococcus faecalis [4]): > 100 µg/mL
MIC (Enterococcus faecalis [5]): 3.12 µg/mL (≈ 2.15 µM)
MIC (Staphylococcus aureus [6]): 1.56 µg/mL (≈ 1.08 µM)
MIC (Enterococcus faecium): > 100 µg/mL
